Laboratory results: patent publication US20230072683A1, “PYRIDO-PYRIMIDIN DERIVATIVES AND PHARMACEUTICAL COMPOSITION, FOR USE IN PREVENTING OR TREATING PI3 KINASE RELATED DISEASES, COMPRISING SAME AS ACTIVE INGREDIENT” (BORYUNG PHARMACEUTICAL CO., LTD, priority 2019, published 2023)
Read-outs that look alike come from different tables or passages of the source. One block for each compound: values may come before it.

Columns and labels:
DNA-PK(h) = DNA-PK(h) (Homo sapiens, UniProt P78527); assay: Evaluation of inhibitory activity against DNA-PK (HTRF kinase assay, GST-cMyc-p53 substrate); type: biochemical; details: for inhibition at 0.01 µM: compound concentration 0.01 μM, read-out: EXP_VALUE(% Inhibition) DNA-PK(h) 0.01 μM; for inhibition at 0.1 µM: read-out: EXP_VALUE(% Inhibition) DNA-PK(h) 0.1 μM
In short: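 Human DNA-PK with 50 μM GST-cMyc-p53 substrate; reaction started with Mg/ATP, run 30 min at room temperature, stopped with EDTA. Phospho-Ser15 p53 detected by HTRF (Eu anti-phospho-Ser15, d2 anti-GST), signal = 10000×(Em 665/Em 620).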

[1] = target: PI3K-δ (PI3K(p1108/p857) (h)) (Homo sapiens, UniProt O00329); assay: Evaluation of inhibitory activity against PI3K-δ (HTRF kinase assay); type: biochemical; details: for inhibition at 0.01 µM: compound concentration 0.01 μM, read-out: EXP_VALUE(% Inhibition) PI3K-δ 0.01 μM; for inhibition at 0.1 µM: read-out: EXP_VALUE(% Inhibition) PI3K-δ 0.1 μM
In short: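 HTRF read-out (665/620 nm ratio ×10000) used Eu-labelled anti-GST, GST-tagged GRP1 PH domain and streptavidin-allophycocyanin after EDTA/PIP3 stop.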

Sequence of PI3K-δ (PI3K(p1108/p857) (h)) (O00329 whole entry, the tested form may be a part): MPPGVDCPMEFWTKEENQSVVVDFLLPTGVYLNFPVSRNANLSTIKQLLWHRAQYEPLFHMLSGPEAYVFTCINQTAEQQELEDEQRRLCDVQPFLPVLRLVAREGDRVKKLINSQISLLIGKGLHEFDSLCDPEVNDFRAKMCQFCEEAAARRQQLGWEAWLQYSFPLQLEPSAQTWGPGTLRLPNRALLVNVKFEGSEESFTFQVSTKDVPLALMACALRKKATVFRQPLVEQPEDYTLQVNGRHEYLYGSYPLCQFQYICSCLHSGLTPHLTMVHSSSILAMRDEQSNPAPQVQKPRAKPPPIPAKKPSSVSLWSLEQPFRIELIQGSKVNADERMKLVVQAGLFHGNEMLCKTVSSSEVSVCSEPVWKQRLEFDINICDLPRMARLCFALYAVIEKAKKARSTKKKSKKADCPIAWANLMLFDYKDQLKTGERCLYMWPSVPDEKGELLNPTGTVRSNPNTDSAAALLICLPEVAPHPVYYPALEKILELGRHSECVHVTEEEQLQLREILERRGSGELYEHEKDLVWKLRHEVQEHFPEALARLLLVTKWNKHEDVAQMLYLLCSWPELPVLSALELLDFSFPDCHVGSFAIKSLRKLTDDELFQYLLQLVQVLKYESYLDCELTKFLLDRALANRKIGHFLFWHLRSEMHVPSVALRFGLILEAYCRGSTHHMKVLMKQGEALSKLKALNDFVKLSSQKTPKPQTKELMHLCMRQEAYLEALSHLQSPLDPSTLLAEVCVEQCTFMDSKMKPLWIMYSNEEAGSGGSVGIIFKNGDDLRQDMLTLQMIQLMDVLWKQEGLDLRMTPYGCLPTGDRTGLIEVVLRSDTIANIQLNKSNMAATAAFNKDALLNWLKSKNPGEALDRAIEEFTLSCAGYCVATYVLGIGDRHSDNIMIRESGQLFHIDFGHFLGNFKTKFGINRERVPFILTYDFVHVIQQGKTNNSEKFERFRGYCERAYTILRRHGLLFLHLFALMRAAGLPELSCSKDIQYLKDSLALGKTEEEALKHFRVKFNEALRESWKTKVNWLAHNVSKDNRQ
Sequence of PI3K-δ (PI3K(p1108/p857) (h)) (P27986 whole entry partner, the tested form may be a part): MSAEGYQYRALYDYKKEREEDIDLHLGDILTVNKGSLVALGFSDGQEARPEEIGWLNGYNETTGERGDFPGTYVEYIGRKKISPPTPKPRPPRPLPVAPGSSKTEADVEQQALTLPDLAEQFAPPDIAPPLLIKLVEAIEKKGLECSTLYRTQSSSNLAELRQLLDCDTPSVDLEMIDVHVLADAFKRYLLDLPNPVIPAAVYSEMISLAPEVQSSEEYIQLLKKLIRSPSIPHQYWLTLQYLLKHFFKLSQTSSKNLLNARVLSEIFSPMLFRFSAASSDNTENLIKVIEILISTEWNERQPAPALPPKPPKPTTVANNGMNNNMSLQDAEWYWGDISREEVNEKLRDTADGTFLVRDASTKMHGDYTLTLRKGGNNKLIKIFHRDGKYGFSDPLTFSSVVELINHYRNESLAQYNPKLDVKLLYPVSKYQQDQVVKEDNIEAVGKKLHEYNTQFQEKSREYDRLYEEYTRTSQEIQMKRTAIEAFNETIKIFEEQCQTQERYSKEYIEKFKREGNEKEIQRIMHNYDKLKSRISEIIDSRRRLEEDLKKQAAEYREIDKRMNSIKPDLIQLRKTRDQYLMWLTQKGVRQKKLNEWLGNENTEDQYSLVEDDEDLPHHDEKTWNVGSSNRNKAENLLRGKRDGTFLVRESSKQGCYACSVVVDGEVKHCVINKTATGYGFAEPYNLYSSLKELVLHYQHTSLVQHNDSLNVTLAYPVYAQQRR

inhibition at 0.01 µM (DNA-PK(h)): 10% | inhibition at 0.1 µM (DNA-PK(h); compound concentration 0.1 μM): 34% | inhibition at 0.01 µM [1]: 22% | inhibition at 0.1 µM ([1]; compound concentration 0.1 μM): 68%
Compound: C[C@H](Nc1ncnc2[nH]ccc(=O)c12)c1c(Cl)c2cccc(NCc3ccccc3)c2c(=O)n1-c1ccccc1 [Example 321, (S)-4-((1-(8-(benzylamino)-4-chloro-1-oxo-2-phenyl-1,2-dihydroisoquinolin-3-yl)ethyl)amino)pyrido[2,3-d]pyrimidin-5(8H)-one]

inhibition at 0.01 µM (DNA-PK(h)): 79% | inhibition at 0.1 µM (DNA-PK(h); compound concentration 0.1 μM): 98% | inhibition at 0.01 µM [1]: 82% | inhibition at 0.1 µM ([1]; compound concentration 0.1 μM): 93%
Compound: C[C@H](Nc1ncnc2[nH]ccc(=O)c12)c1c(Cl)c2cccc(-c3ccc4nccn4c3)c2c(=O)n1-c1ccccc1 [Example 113, (S)-4-((1-(4-chloro-8-(imidazo[1,2-a]pyridin-6-yl)-1-oxo-2-phenyl-1,2-dihydroisoquinolin-3-yl)ethyl)amino)pyrido[2,3-d]pyrimidin-5(8H)-one]

inhibition at 0.1 µM (DNA-PK(h); compound at 0.1 μM): 68% | inhibition at 0.1 µM ([1]; compound at 0.1 μM): 44%
Compound: C[C@H](Nc1ncnc2[nH]ccc(=O)c12)c1c(Cl)c2cccc(OCc3ccccn3)c2c(=O)n1-c1ccccc1 [Example 430, (S)-4-((1-(4-chloro-1-oxo-2-phenyl-8-(pyridin-2-ylmethoxy)-1,2-dihydroisoquinolin-3-yl)ethyl)amino)pyrido[2,3-d]pyrimidin-5(8H)-one]

inhibition at 0.01 µM (DNA-PK(h)): 4% | inhibition at 0.1 µM (DNA-PK(h); compound concentration 0.1 μM): 48% | inhibition at 0.01 µM [1]: 17% | inhibition at 0.1 µM ([1]; compound concentration 0.1 μM): 72%
Compound: C[C@H](Nc1ncnc2[nH]ccc(=O)c12)c1c(Cl)c2cccc(-c3ccc(SC(C)(C)C)cc3)c2c(=O)n1-c1ccccc1 [Example 144, (S)-4-((1-(8-(4-(tert-butylthio)phenyl)-4-chloro-1-oxo-2-phenyl-1,2-dihydroisoquinolin-3-yl)ethyl)amino)pyrido[2,3-d]pyrimidin-5(8H)-one]

inhibition at 0.1 µM (DNA-PK(h); compound at 0.1 μM): 23% | inhibition at 0.1 µM ([1]; compound at 0.1 μM): 92%
Compound: C[C@H](Nc1ncnc2[nH]ccc(=O)c12)c1c(Cl)c2cccc(S(=O)(=O)c3ccc(F)cc3)c2c(=O)n1-c1ccccc1 [Example 399, (S)-4-((1-(4-chloro-8-((4-fluorophenyl)sulfonyl)-1-oxo-2-phenyl-1,2-dihydroisoquinolin-3-yl)ethyl)amino)pyrido[2,3-d]pyrimidin-5(8H)-one]

inhibition at 0.01 µM (DNA-PK(h)): 20% | inhibition at 0.01 µM [1]: 46%
Compound: C[C@H](Nc1ncnc2[nH]ccc(=O)c12)c1c(Cl)c2cccc(-c3ccc(OCc4ccccc4)nc3)c2c(=O)n1-c1ccccc1 [Example 164, (S)-4-((1-(8-(6-(benzyloxy)pyridin-3-yl)-4-chloro-1-oxo-2-phenyl-1,2-dihydroisoquinolin-3-yl)ethyl)amino)pyrido[2,3-d]pyrimidin-5(8H)-one]

inhibition at 0.01 µM (DNA-PK(h)): 51% | inhibition at 0.1 µM (DNA-PK(h); compound concentration 0.1 μM): 86% | inhibition at 0.01 µM [1]: 93% | inhibition at 0.1 µM ([1]; compound concentration 0.1 μM): 101%
Compound: COc1ccc(-c2cccc3c(Cl)c([C@H](C)Nc4ncnc5[nH]ccc(=O)c45)n(-c4ccccc4)c(=O)c23)cc1 [Example 64, (S)-4-((1-(4-chloro-8-(4-methoxyphenyl)-1-oxo-2-phenyl-1,2-dihydroisoquinolin-3-yl)ethyl)amino)pyrido[2,3-d]pyrimidin-5(8H)-one]

Further lines, the compound ahead of its results:

Compound: C[C@H](Nc1ncnc2[nH]ccc(=O)c12)c1c(Cl)c2cccc(NS(=O)(=O)CC(F)(F)F)c2c(=O)n1-c1ccccc1 [Example 302, (S)—N-(4-chloro-1-oxo-3-(1-((5-oxo-5,8-dihydropyrido[2,3-d]pyrimidin-4-yl)amino)ethyl)-2-phenyl-1,2-dihydroisoquinolin-8-yl)-2,2,2-trifluoroethane-1-sulfonamide]
inhibition at 0.01 µM (DNA-PK(h)): 16% | inhibition at 0.01 µM [1]: 16%

Compound: Cc1ccc2c(c1)CN(c1cccc3c(Cl)c([C@H](C)Nc4ncnc5[nH]ccc(=O)c45)n(-c4ccccc4)c(=O)c13)CC2 [Example 329, (S)-4′-chloro-7-methyl-3′-(1-((5-oxo-5,8-dihydropyrido[2,3-d]pyrimidin-4-yl)amino)ethyl)-2′-phenyl-3,4-dihydro-1H-[2,8′-biisoquinolin]-1′(2′H)-one]
inhibition at 0.01 µM (DNA-PK(h)): 4% | inhibition at 0.1 µM (DNA-PK(h); compound concentration 0.1 μM): 23% | inhibition at 0.01 µM [1]: 19% | inhibition at 0.1 µM ([1]; compound concentration 0.1 μM): 55%

Compound: C[C@H](Nc1ncnc2[nH]ccc(=O)c12)c1c(Cl)c2cccc(C(=O)NC(C)(C)C)c2c(=O)n1-c1ccccc1 [Example 285, (S)—N-(tert-butyl)-4-chloro-1-oxo-3-(1-((5-oxo-5,8-dihydropyrido[2,3-d]pyrimidin-4-yl)amino)ethyl)-2-phenyl-1,2-dihydroisoquinoline-8-carboxamide]
inhibition at 0.01 µM (DNA-PK(h)): 15% | inhibition at 0.01 µM [1]: 22%

Compound: C[C@H](Nc1ncnc2[nH]ccc(=O)c12)c1cc2cccc(-c3nc4ccccc4o3)c2c(=O)n1-c1ccccc1 [Example 318, (S)-4-((1-(8-(benzo[d]oxazol-2-yl)-1-oxo-2-phenyl-1,2-dihydroisoquinolin-3-yl)ethyl)amino)pyrido[2,3-d]pyrimidin-5(8H)-one]
inhibition at 0.01 µM (DNA-PK(h)): 19% | inhibition at 0.1 µM (DNA-PK(h); compound concentration 0.1 μM): 35% | inhibition at 0.01 µM [1]: 23% | inhibition at 0.1 µM ([1]; compound concentration 0.1 μM): 65%

Compound: C[C@H](Nc1ncnc2[nH]ccc(=O)c12)c1c(Cl)c2cccc(-c3ccc(-c4ccncc4)cc3)c2c(=O)n1-c1ccccc1 [Example 105, (S)-4-((1-(4-chloro-1-oxo-2-phenyl-8-(4-(pyridin-4-yl)phenyl)-1,2-dihydroisoquinolin-3-yl)ethyl)amino)pyrido[2,3-d]pyrimidin-5(8H)-one]
inhibition at 0.01 µM (DNA-PK(h)): 12% | inhibition at 0.1 µM (DNA-PK(h); compound concentration 0.1 μM): 75% | inhibition at 0.01 µM [1]: 75% | inhibition at 0.1 µM ([1]; compound concentration 0.1 μM): 103%

Compound: C[C@H](Nc1ncnc2[nH]ccc(=O)c12)c1c(Cl)c2cccc(C(=O)NCCN3CCOCC3)c2c(=O)n1-c1ccccc1 [Example 281, (S)-4-chloro-N-(2-morpholinoethyl)-1-oxo-3-(1-((5-oxo-5,8-dihydropyrido[2,3-d]pyrimidin-4-yl)amino)ethyl)-2-phenyl-1,2-dihydroisoquinoline-8-carboxamide]
inhibition at 0.01 µM (DNA-PK(h)): 13% | inhibition at 0.01 µM [1]: 75%

Compound: C[C@H](Nc1ncnc2[nH]ccc(=O)c12)c1c(Cl)c2cccc(-c3cnc(S(C)(=O)=O)nc3)c2c(=O)n1-c1ccccc1 [Example 392, (S)-4-((1-(4-chloro-8-(2-(methylsulfonyl)pyrimidin-5-yl)-1-oxo-2-phenyl-1,2-dihydroisoquinolin-3-yl)ethyl)amino)pyrido[2,3-d]pyrimidin-5(8H)-one]
inhibition at 0.1 µM (DNA-PK(h); compound at 0.1 μM): 45% | inhibition at 0.1 µM ([1]; compound at 0.1 μM): 94%

Compound: C[C@H](Nc1ncnc2[nH]ccc(=O)c12)c1c(Cl)c2cccc(-c3ccc(C(=O)N4CCOCC4)cc3)c2c(=O)n1-c1ccccc1 [Example 145, (S)-4-((1-(4-chloro-8-(4-(morpholin-4-carbonyl)phenyl)-1-oxo-2-phenyl-1,2-dihydroisoquinolin-3-yl)ethyl)amino)pyrido[2,3-d]pyrimidin-5(8H)-one]
inhibition at 0.01 µM (DNA-PK(h)): 93% | inhibition at 0.01 µM [1]: 88%

Compound: CCNc1ncc(-c2cccc3c(Cl)c([C@H](C)Nc4ncnc5[nH]ccc(=O)c45)n(-c4ccccc4)c(=O)c23)cn1 [Example 228, (S)-4-((1-(4-chloro-8-(2-(ethylamino)pyrimidin-5-yl)-1-oxo-2-phenyl-1,2-dihydroisoquinolin-3-yl)ethyl)amino)pyrido[2,3-d]pyrimidin-5(8H)-one]
inhibition at 0.01 µM (DNA-PK(h)): 78% | inhibition at 0.01 µM [1]: 88%

Compound: Cc1cncc(-c2cccc3c(Cl)c([C@H](C)Nc4ncnc5[nH]ccc(=O)c45)n(-c4ccccc4)c(=O)c23)c1 [Example 119, (S)-4-((1-(4-chloro-8-(5-methylpyridin-3-yl)-1-oxo-2-phenyl-1,2-dihydroisoquinolin-3-yl)ethyl)amino)pyrido[2,3-d]pyrimidin-5(8H)-one]
inhibition at 0.01 µM (DNA-PK(h)): 96% | inhibition at 0.1 µM (DNA-PK(h); compound concentration 0.1 μM): 101% | inhibition at 0.01 µM [1]: 84% | inhibition at 0.1 µM ([1]; compound concentration 0.1 μM): 82%

Compound: C[C@H](Nc1ncnc2[nH]ccc(=O)c12)c1c(Cl)c2cccc(N3CCC4CCCCC4C3)c2c(=O)n1-c1ccccc1 (stereo partly drawn) [Example 328, 4′-chloro-3′-((S)-1-((5-oxo-5,8-dihydropyrido[2,3-d]pyrimidin-4-yl)amino)ethyl)-2′-phenyl-3,4,4a,5,6,7,8,8a-octahydro-1H-[2,8′-biisoquinolin]-1′(2′H)-one]
inhibition at 0.01 µM (DNA-PK(h)): 2% | inhibition at 0.1 µM (DNA-PK(h); compound concentration 0.1 μM): 12% | inhibition at 0.01 µM [1]: 17% | inhibition at 0.1 µM ([1]; compound concentration 0.1 μM): 42%

Compound: C[C@H](Nc1ncnc2[nH]ccc(=O)c12)c1c(Cl)c2cccc(-c3ccc4ocnc4c3)c2c(=O)n1-c1ccccc1 [Example 241, (S)-4-((1-(8-(benzo[d]oxazol-5-yl)-4-chloro-1-oxo-2-phenyl-1,2-dihydroisoquinolin-3-yl)ethyl)amino)pyrido[2,3-d]pyrimidin-5(8H)-one]
inhibition at 0.01 µM (DNA-PK(h)): 49% | inhibition at 0.01 µM [1]: 32%

Compound: C[C@H](Nc1ncnc2[nH]ccc(=O)c12)c1c(Cl)c2cccc(N3CCc4ccsc4C3)c2c(=O)n1-c1ccccc1 [Example 330, (S)-4-((1-(4-chloro-8-(4,7-dihydrothieno[2,3-c]pyridin-6(5H)-yl)-1-oxo-2-phenyl-1,2-dihydroisoquinolin-3-yl)ethyl)amino)pyrido[2,3-d]pyrimidin-5(8H)-one]
inhibition at 0.01 µM (DNA-PK(h)): 10% | inhibition at 0.1 µM (DNA-PK(h); compound concentration 0.1 μM): 32% | inhibition at 0.01 µM [1]: 30% | inhibition at 0.1 µM ([1]; compound concentration 0.1 μM): 72%

Compound: CCCOC(C)(C)c1ncc(-c2cccc3c(Cl)c([C@H](C)Nc4ncnc5[nH]ccc(=O)c45)n(-c4ccccc4)c(=O)c23)cn1 [Example 406, (S)-4-((1-(4-chloro-1-oxo-2-phenyl-8-(2-(2-propoxypropan-2-yl)pyrimidin-5-yl)-1,2-dihydroisoquinolin-3-yl)ethyl)amino)pyrido[2,3-d]pyrimidin-5(8H)-one]
inhibition at 0.1 µM (DNA-PK(h); compound at 0.1 μM): 71% | inhibition at 0.1 µM ([1]; compound at 0.1 μM): 72%
